# In patent publication US8192962B2, “Processes for detecting toxic substances” (Daikin Industries, Ltd., priority 2001, dated 2012):
# Tested on: Transport facilitation protein genes
# Assay: DNA chip mRNA expression in yeast, transport facilitation protein genes (Table 5)
# Type: cell-based, Saccharomyces cerevisiae S288C
# Method in brief: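 Cells were grown at 25° C. in YPD, treated at logarithmic phase for 2 h with a chemical at a concentration inhibiting growth but not causing death, and compared with untreated cultures. Labeled cDNA was hybridized to a DNA chip carrying all yeast genes, and the expression ratio was taken from scanner fluorescence.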
smiles,measurement,setting,value
"CN(C)C(=S)SSC(=S)N(C)C [(10), Tetramethylthiuram disulfide]",The level of expressed mRNA in the presence of chemical substance/The level of expressed mRNA in the absence of chemical substance,yeast gene YGR281W,1.4
same,The level of expressed mRNA in the presence of chemical substance/The level of expressed mRNA in the absence of chemical substance,yeast gene YHL035C,4.6
same,The level of expressed mRNA in the presence of chemical substance/The level of expressed mRNA in the absence of chemical substance,yeast gene YHL036W,4.4
same,The level of expressed mRNA in the presence of chemical substance/The level of expressed mRNA in the absence of chemical substance,yeast gene YHL040C,11.3
same,The level of expressed mRNA in the presence of chemical substance/The level of expressed mRNA in the absence of chemical substance,yeast gene YHL047C,11.9
same,The level of expressed mRNA in the presence of chemical substance/The level of expressed mRNA in the absence of chemical substance,yeast gene YHR026W,0.9
same,The level of expressed mRNA in the presence of chemical substance/The level of expressed mRNA in the absence of chemical substance,yeast gene YHR092C,0.9
same,The level of expressed mRNA in the presence of chemical substance/The level of expressed mRNA in the absence of chemical substance,yeast gene YHR094C,1.2
same,The level of expressed mRNA in the presence of chemical substance/The level of expressed mRNA in the absence of chemical substance,yeast gene YHR175W,2.0
same,The level of expressed mRNA in the presence of chemical substance/The level of expressed mRNA in the absence of chemical substance,yeast gene YIL006W,1.1
same,The level of expressed mRNA in the presence of chemical substance/The level of expressed mRNA in the absence of chemical substance,yeast gene YIL022W,1.3
same,The level of expressed mRNA in the presence of chemical substance/The level of expressed mRNA in the absence of chemical substance,yeast gene YIL056W,1.6
same,The level of expressed mRNA in the presence of chemical substance/The level of expressed mRNA in the absence of chemical substance,yeast gene YIL088C,1.7
same,The level of expressed mRNA in the presence of chemical substance/The level of expressed mRNA in the absence of chemical substance,yeast gene YJL034W,1.1
same,The level of expressed mRNA in the presence of chemical substance/The level of expressed mRNA in the absence of chemical substance,yeast gene YJL212C,1.3
same,The level of expressed mRNA in the presence of chemical substance/The level of expressed mRNA in the absence of chemical substance,yeast gene YJL219W,2.3
same,The level of expressed mRNA in the presence of chemical substance/The level of expressed mRNA in the absence of chemical substance,yeast gene YJR077C,0.7
same,The level of expressed mRNA in the presence of chemical substance/The level of expressed mRNA in the absence of chemical substance,yeast gene YJR106W,1.6
same,The level of expressed mRNA in the presence of chemical substance/The level of expressed mRNA in the absence of chemical substance,yeast gene YJR121W,1.3
same,The level of expressed mRNA in the presence of chemical substance/The level of expressed mRNA in the absence of chemical substance,yeast gene YKL016C,1.8
same,The level of expressed mRNA in the presence of chemical substance/The level of expressed mRNA in the absence of chemical substance,yeast gene YKL146W,2.8
same,The level of expressed mRNA in the presence of chemical substance/The level of expressed mRNA in the absence of chemical substance,yeast gene YKL188C,2.8
same,The level of expressed mRNA in the presence of chemical substance/The level of expressed mRNA in the absence of chemical substance,yeast gene YKR039W,2.0
same,The level of expressed mRNA in the presence of chemical substance/The level of expressed mRNA in the absence of chemical substance,yeast gene YKR067W,2.3
same,The level of expressed mRNA in the presence of chemical substance/The level of expressed mRNA in the absence of chemical substance,yeast gene YLL028W,2.3
same,The level of expressed mRNA in the presence of chemical substance/The level of expressed mRNA in the absence of chemical substance,yeast gene YLL055W,14.0
same,The level of expressed mRNA in the presence of chemical substance/The level of expressed mRNA in the absence of chemical substance,yeast gene YLR081W,2.2
same,The level of expressed mRNA in the presence of chemical substance/The level of expressed mRNA in the absence of chemical substance,yeast gene YLR295C,1.2
same,The level of expressed mRNA in the presence of chemical substance/The level of expressed mRNA in the absence of chemical substance,yeast gene YLR348C,1.3
same,The level of expressed mRNA in the presence of chemical substance/The level of expressed mRNA in the absence of chemical substance,yeast gene YLR378C,0.7
same,The level of expressed mRNA in the presence of chemical substance/The level of expressed mRNA in the absence of chemical substance,yeast gene YMR011W,0.7
same,The level of expressed mRNA in the presence of chemical substance/The level of expressed mRNA in the absence of chemical substance,yeast gene YMR058W,1.4
same,The level of expressed mRNA in the presence of chemical substance/The level of expressed mRNA in the absence of chemical substance,yeast gene YMR162C,1.0
same,The level of expressed mRNA in the presence of chemical substance/The level of expressed mRNA in the absence of chemical substance,yeast gene YMR203W,1.2
same,The level of expressed mRNA in the presence of chemical substance/The level of expressed mRNA in the absence of chemical substance,yeast gene YNL055C,1.0
same,The level of expressed mRNA in the presence of chemical substance/The level of expressed mRNA in the absence of chemical substance,yeast gene YNL259C,2.1
same,The level of expressed mRNA in the presence of chemical substance/The level of expressed mRNA in the absence of chemical substance,yeast gene YNR072W,1.8
same,The level of expressed mRNA in the presence of chemical substance/The level of expressed mRNA in the absence of chemical substance,yeast gene YOL119C,7.4
same,The level of expressed mRNA in the presence of chemical substance/The level of expressed mRNA in the absence of chemical substance,yeast gene YOL156W,2.1
same,The level of expressed mRNA in the presence of chemical substance/The level of expressed mRNA in the absence of chemical substance,yeast gene YOL163W,6.2
same,The level of expressed mRNA in the presence of chemical substance/The level of expressed mRNA in the absence of chemical substance,yeast gene YOR035C,1.7
same,The level of expressed mRNA in the presence of chemical substance/The level of expressed mRNA in the absence of chemical substance,yeast gene YOR130C,1.7
same,The level of expressed mRNA in the presence of chemical substance/The level of expressed mRNA in the absence of chemical substance,yeast gene YOR153W,1.2
same,The level of expressed mRNA in the presence of chemical substance/The level of expressed mRNA in the absence of chemical substance,yeast gene YOR270C,0.9
same,The level of expressed mRNA in the presence of chemical substance/The level of expressed mRNA in the absence of chemical substance,yeast gene YOR273C,0.5
same,The level of expressed mRNA in the presence of chemical substance/The level of expressed mRNA in the absence of chemical substance,yeast gene YOR316C,2.0
same,The level of expressed mRNA in the presence of chemical substance/The level of expressed mRNA in the absence of chemical substance,yeast gene YOR332W,1.1
same,The level of expressed mRNA in the presence of chemical substance/The level of expressed mRNA in the absence of chemical substance,yeast gene YOR348C,0.4
same,The level of expressed mRNA in the presence of chemical substance/The level of expressed mRNA in the absence of chemical substance,yeast gene YPL036W,0.3
same,The level of expressed mRNA in the presence of chemical substance/The level of expressed mRNA in the absence of chemical substance,yeast gene YPL134C,0.8
same,The level of expressed mRNA in the presence of chemical substance/The level of expressed mRNA in the absence of chemical substance,yeast gene YPL265W,1.2
same,The level of expressed mRNA in the presence of chemical substance/The level of expressed mRNA in the absence of chemical substance,yeast gene YPL271W,1.2
same,The level of expressed mRNA in the presence of chemical substance/The level of expressed mRNA in the absence of chemical substance,yeast gene YPR124W,1.5
same,The level of expressed mRNA in the presence of chemical substance/The level of expressed mRNA in the absence of chemical substance,yeast gene YPR192W,1.3
same,The level of expressed mRNA in the presence of chemical substance/The level of expressed mRNA in the absence of chemical substance,yeast gene YPR194C,0.6
